Literature values in patent US20110244057A1, “COMBINATION THERAPIES WITH TOPIRAMATE FOR SEIZURES, RESTLESS LEGS SYNDROME, AND OTHER NEUROLOGICAL CONDITIONS” (priority 2008, published 2011).

Columns and labels:
kindled seizures = conditions: rats; Wauquier and Zhou, Epilepsy Res. 24:73-77, 1996
[1] = doses of 100 mg/day and 200 mg/day; Romigi et al., J. Neurology, 2007

- induction of Restless Leg Syndrome (RLS) [1]: cause RLS
Structure (SMILES): CC1(C)O[C@@H]2[C@@H](CO[C@@]3(COS(N)(=O)=O)OC(C)(C)O[C@@H]23)O1 [topiramate, 2,3:4,5-bis-O-(1-methylethyldiene)-β-D-fructopyranose sulfamate]
- effect on kindled seizures (kindled seizures): blocks kindled seizures
